Laboratory results reported in patent publication US20120015907A1, “Furopyridine compounds and uses thereof” (NOVARTIS AG, priority 2010, published 2012).

Legend:
[1] = molecular target: T1, HCV polymerase (Hepatitis C virus genotype 1b, UniProt Q9WMX2); assay: biochemical; conditions: polymerase assay of Biological Example 1; read-out: NS5B polymerase IC50
T1 construct: (His)6 (C)

[2] = system: HCV replicon I389luc-ubi-neo/NS3-3'/ET in ET (Huh-lucubineo-ET) cells; assay: Replicon assay (Biological Example 2), luciferase read-out; type: cell-based; conditions: Hepatitis C virus, luciferase activity 48 hours after compound addition
Description: A cell line, ET (Huh-lucubineo-ET) is used for screening of compounds for inhibiting HCV RNA dependent RNA polymerase. The ET cell line is stably transfected with RNA transcripts harboring a I389luc-ubi-neo/NS3-3′/ET; replicon with firefly luciferase-ubiquitin-neomycin phosphotransferase fusion protein and EMCV-IRES driven NS3-5B polyprotein containing the cell culture adaptive mutations (E1202G; […]; K1846T) (Krieger at al, 2001 and unpublished). The ET cells are grown in DMEM (Dulbeco's Modified Eagle's Medium), supplemented with 10% fetal calf serum, 2 mM Glutamine, Penicillin (100 IU/mL)/Streptomycin (100 μg/mL), 1× nonessential amino acids, and 250 μg/mL G418 (“Geneticin”). Reagents are all available through Life Technologies (Bethesda, Md.). The cells are plated at 0.5-1.0×10^4 cells/well in the 96 well plates and incubated for 24 hrs before adding test compound. The compounds are added to the cells to achieve a final concentration of 0.1 nM to 50 μM and a final DMSO (dimethylsulfoxide) concentration of 0.5%. Luciferase activity is measured 48 hours later by adding a lysis buffer and the substrate (Catalog number Glo-lysis buffer E2661 and Bright-Glo luciferase system E2620 Promega, Madison, Wis.). Cells should not be too confluent during the assay. Percent inhibition of replication data is plotted relative to no compound control. To determine the EC50 (effective concentration at which 50% of the maximum inhibition is observed), a 10 point, 3-fold serial dilution for each compound is used, which spans a concentration range of 1000 fold. EC50 values were calculated by fitting % inhibition at each concentration to the following equation:
% inhibition=100%/[(EC50/[I])^b+1]
where b is Hill's coefficient.

CNC(=O)c1c(-c2ccc(F)cc2)oc2nc(N(CCCOCCOC)S(C)(=O)=O)c(C3CC3)cc12 [Example 25, 5-cyclopropyl-2-(4-fluorophenyl)-6-(N-(3-(2-methoxyethoxy)propyl)methylsulfonamido)-N-methylfuro[2,3-b]pyridine-3-carboxamide]
IC50 [1]: 5 nM | IC50 [2]: ≤ 100 nM

CCc1cc2c(C(=O)NC)c(-c3ccc(F)cc3)oc2nc1N(CCCCC(C)=O)S(C)(=O)=O [Example 22.92, 5-ethyl-2-(4-fluorophenyl)-N-methyl-6-(N-(5-oxohexyl)methylsulfonamido)furo[2,3-b]pyridine-3-carboxamide]
IC50 [1]: 32 nM | IC50 [2]: ≤ 100 nM

CNC(=O)c1c(-c2ccc(C)cc2)oc2nc(N(CCCCS(C)(=O)=O)S(C)(=O)=O)c(I)cc12 [Example 18.996, 5-iodo-N-methyl-6-(N-(4-(methylsulfonyl)butyl)methylsulfonamido)-2-p-tolylfuro[2,3-b]pyridine-3-carboxamide]
IC50 [1]: 4 nM | IC50 [2]: ≤ 100 nM

CNC(=O)c1c(-c2ccc(Cl)cc2F)oc2nc(N(C)S(C)(=O)=O)c(C3CC3)cc12 [Example 2.97]
IC50 [1]: 4 nM | IC50 [2]: ≤ 100 nM

CNC(=O)c1c(-c2ccc(F)cc2)oc2nc(N(C)S(C)(=O)=O)c(CCCCC(=O)O)cc12 [Example 4, 5-(2-(4-fluorophenyl)-3-(methylcarbamoyl)-6-(N-methylmethylsulfonamido)furo[2,3-b]pyridin-5-yl)pentanoic acid]
IC50 [1]: 49 nM | IC50 [2]: ≥ 5000 nM

CNC(=O)c1c(-c2ccc(C3CC3)cc2)oc2nc(N(CCCCC(=O)O)S(C)(=O)=O)c(C3CC3)cc12 [Example 27.7, 5-(N-(5-cyclopropyl-2-(4-cyclopropylphenyl)-3-(methylcarbamoyl)furo[2,3-b]pyridin-6-yl)methylsulfonamido) pentanoic acid]
IC50 [1]: 1 nM | IC50 [2]: ≤ 100 nM

CNC(=O)c1c(-c2ccc(Cl)cc2)oc2nc(N(CCCC(C)(C)C(=O)O)S(C)(=O)=O)c(C3CC3)cc12 [Example 28.3, 5-(N-(2-(4-chlorophenyl)-5-cyclopropyl-3-(methylcarbamoyl)furo[2,3-b]pyridin-6-yl)methylsulfonamido)-2,2-dimethylpentanoic acid]
IC50 [1]: 2 nM | IC50 [2]: ≤ 100 nM

CNC(=O)c1c(-c2ccc(C)cc2)oc2nc(N(CCCC3(C(=O)O)CCCC3)S(C)(=O)=O)c(C3CC3)cc12 [Example 28, 1-(3-(N-(5-cyclopropyl-3-(methylcarbamoyl)-2-p-tolylfuro[2,3-b]pyridin-6-yl)methylsulfonamido)propyl) cyclopentanecarboxylic acid]
IC50 [1]: 1 nM | IC50 [2]: ≤ 100 nM

CNC(=O)c1c(-c2ccc(F)cc2)oc2nc(N(C)S(C)(=O)=O)c(C3CC3)cc12 [Example 1, 5-Cyclopropyl-2-(4-fluoro-phenyl)-6-(methanesulfonyl-methyl-amino)-furo[2,3-b]pyridine-3-carboxylic acid methylamide]
IC50 [1]: 16 nM | IC50 [2]: ≤ 100 nM

CNC(=O)c1c(-c2ccc(F)cc2)oc2nc3c(cc12)C(C)CCCN3S(C)(=O)=O (centres unmarked) [Example 30, 2-(4-Fluoro-phenyl)-9-methanesulfonyl-5-methyl-6,7,8,9-tetrahydro-5H-1-oxa-9,10-diaza-cyclohepta[f]indene-3-carboxylic acid methylamide]
IC50 [1]: 62 nM | IC50 [2]: ≤ 100 nM

CNC(=O)c1c(-c2ccc(F)cc2)oc2nc(N(CCCC(C)(C)C(=O)OCC(C)C)S(C)(=O)=O)c(C3CC3)cc12 [Example 26, isobutyl 5-(N-(5-cyclopropyl-2-(4-fluorophenyl)-3-(methylcarbamoyl)furo[2,3-b]pyridin-6-yl)methylsulfonamido)-2,2-dimethylpentanoate]
IC50 [1]: 6 nM | IC50 [2]: ≤ 100 nM

CNC(=O)c1c(-c2ccc(C3CC3)cc2)oc2nc(N(CCCS(C)(=O)=O)S(C)(=O)=O)c(C3CC3)cc12 [Example 24.9, 5-cyclopropyl-2-(4-cyclopropylphenyl)-N-methyl-6-(N-(3-(methylsulfonyl)propyl)methylsulfonamido)furo[2,3-b]pyridine-3-carboxamide]
IC50 [1]: 3 nM | IC50 [2]: ≤ 100 nM

CNC(=O)c1c(-c2ccc(F)cc2)oc2nc(N(C)S(C)(=O)=O)c(CCCCC(C)(O)C(C)(C)O)cc12 (centres unmarked) [Example 4.9, 5-(5,6-dihydroxy-5,6-dimethylheptyl)-2-(4-fluorophenyl)-N-methyl-6-(N-methylmethylsulfonamido)furo[2,3-b]pyridine-3-carboxamide]
IC50 [1]: 75 nM | IC50 [2]: ≤ 100 nM

CNC(=O)c1c(-c2ccc(F)cc2)oc2nc(N(C)S(C)(=O)=O)c(CCCC(=O)NS(C)(=O)=O)cc12 [Example 4.5, 2-(4-fluorophenyl)-N-methyl-6-(N-methylmethylsulfonamido)-5-(4-(methylsulfonamido)-4-oxobutyl)furo[2,3-b]pyridine-3-carboxamide]
IC50 [1]: 206 nM | IC50 [2]: ≥ 5000 nM

CNC(=O)c1c(-c2ccc(C)cc2)oc2nc(N(CCCC(C)(C)C(=O)O)S(C)(=O)=O)c(C3CC3)cc12 [Example 24, 5-[(5-Cyclopropyl-3-methylcarbamoyl-2-p-tolyl-furo[2,3-b]pyridin-6-yl)-methanesulfonyl-amino]-2,2-dimethyl-pentanoic acid]
IC50 [1]: 1 nM | IC50 [2]: ≤ 100 nM

CNC(=O)c1c(-c2ccc(F)cc2)oc2nc(N(CCCC3CCCS3(=O)=O)S(C)(=O)=O)c(C3CC3)cc12 (racemic) [Example 24.4]
IC50 [1]: 9 nM | IC50 [2]: ≤ 100 nM

CCc1cc2c(C(=O)NC)c(-c3ccc(F)cc3)oc2nc1N(Cc1cccc(C#N)c1)S(C)(=O)=O [Example 21.99, 6-(N-(3-cyanobenzyl)methylsulfonamido)-5-ethyl-2-(4-fluorophenyl)-N-methylfuro[2,3-b]pyridine-3-carboxamide]
IC50 [1]: 4540 nM | IC50 [2]: ≥ 5000 nM

CNC(=O)c1c(-c2ccc(Oc3ccc(F)cc3)cc2)oc2nc(N(CCCCC(=O)O)S(C)(=O)=O)c(C3CC3)cc12 [Example 27.2, 5-(N-(5-cyclopropyl-2-(4-(4-fluorophenoxy)phenyl)-3-(methylcarbamoyl)furo[2,3-b]pyridin-6-yl)methylsulfonamido) pentanoic acid]
IC50 [1]: 1 nM | IC50 [2]: ≤ 100 nM

CNC(=O)c1c(-c2ccc(C3CC3)cc2)oc2nc(N(CCCC3CCCS3(=O)=O)S(C)(=O)=O)c(C3CC3)cc12 (centres unmarked) [Example 25.4, 5-Cyclopropyl-2-(4-cyclopropyl-phenyl)-6-{[3-(1,1-dioxo-tetrahydro-thiophen-2-yl)-propyl]-methanesulfonyl-amino}-furo[2,3-b]pyridine-3-carboxylic acid methylamide]
IC50 [1]: 1 nM | IC50 [2]: ≤ 100 nM

CNC(=O)c1c(-c2ccc(F)cc2)oc2nc(N(CCCC(=O)NS(C)(=O)=O)S(C)(=O)=O)c(I)cc12 [Example 18.96, 2-(4-fluorophenyl)-5-iodo-N-methyl-6-(N-(4-(methylsulfonamido)-4-oxobutyl)methylsulfonamido)furo[2,3-b]pyridine-3-carboxamide]
IC50 [1]: 34 nM | IC50 [2]: ≥ 5000 nM

CNC(=O)c1c(-c2ccc(F)cc2)oc2nc(N(CCCC(=O)O)S(C)(=O)=O)c(I)cc12 [Example 18.95, 4-(N-(2-(4-fluorophenyl)-5-iodo-3-(methylcarbamoyl)furo[2,3-b]pyridin-6-yl)methylsulfonamido)butanoic acid]
IC50 [1]: 112 nM | IC50 [2]: ≥ 5000 nM

CCc1cc2c(C(=O)NC)c(-c3ccc(F)cc3)oc2nc1N(CCCN1CCCCS1(=O)=O)S(C)(=O)=O [Example 23.7, 6-{[3-(1,1-Dioxo-[1,2]thiazinan-2-yl)-propyl]-methanesulfonyl-amino}-5-ethyl-2-(4-fluorophenyl)-furo[2,3-b]pyridine-3-carboxylic acid methylamide]
IC50 [1]: 5 nM | IC50 [2]: ≤ 100 nM

CCc1cc2c(C(=O)NC)c(-c3ccc(F)cc3)oc2nc1N(CCCS(C)(=O)=O)S(C)(=O)=O [Example 21.992, 5-ethyl-2-(4-fluorophenyl)-N-methyl-6-(N-(3-(methylsulfonyl)propyl)methylsulfonamido)furo[2,3-b]pyridine-3-carboxamide]
IC50 [1]: 65 nM | IC50 [2]: ≤ 100 nM

CCc1cc2c(C(=O)NC)c(-c3ccc(F)cc3)oc2nc1N(CCCC1CCCS1(=O)=O)S(C)(=O)=O (single isomer, unassigned) [Example 22.991, 6-{[3-(1,1-Dioxo-tetrahydro-1lambdathiophen-2-yl)-propyl]-methanesulfonyl-amino}-5-ethyl-2-(4-fluoro-phenyl)-furo[2,3-b]pyridine-3-carboxylic acid methylamide]
IC50 [1]: 7 nM | IC50 [2]: ≤ 100 nM

CNC(=O)c1c(-c2ccc(F)cc2)oc2nc(N(CCCCC(=O)O)S(C)(=O)=O)c(I)cc12 [Example 19, 5-{[2-(4-Fluoro-phenyl)-5-iodo-3-methylcarbamoyl-furo[2,3-b]pyridin-6-yl]-methanesulfonyl-amino}-pentanoic acid]
IC50 [1]: 9 nM | IC50 [2]: ≥ 5000 nM
